Measured values as given in PubChem BioAssay AID256 (DTP/NCI, 2004).
“And” between values parts separate entries of the source, which are not always exact repeats. Equal entries are not always repeated. Inconclusive results and toxic doses are left out. Residues, ends and D or L forms follow the SMILES beside them. *: point of attachment. Dnp = O=[N+]([O-])c1ccc(*)c([N+](=O)[O-])c1

Tested on: CD2F1 mice, L1210 leukemia ip, survival T/C
Experiment: NCI In Vivo Anticancer Drug Screen. Data for tumor model L1210 Leukemia (intraperitoneal) in CD2F1 (CDF1) mice
Details: higher = longer survival
Outline: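 Compound-dosed mice with transplantable tumor versus matched vehicle controls; endpoint ratio T/C reported.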

[1] = endpoint: mean survival time, dose: 100.0 mg/kg/injection, schedule: Q04DX003 (ip), vehicle: saline with Tween-80
[2] = endpoint: mean survival time, dose: 100.0 mg/kg/injection, schedule: Q01DX009 (ip), vehicle: saline with Tween-80
[3] = endpoint: mean survival time, dose: 200.0 mg/kg/injection, schedule: Q01DX009 (ip), vehicle: saline with Tween-80
[4] = endpoint: mean survival time, dose: 400.0 mg/kg/injection, schedule: Q01DX009 (ip), vehicle: saline with Tween-80
[5] = endpoint: mean survival time, dose: 200.0 mg/kg/injection, schedule: Q04DX003 (ip), vehicle: saline with Tween-80
[6] = endpoint: mean survival time, dose: 400.0 mg/kg/injection, schedule: Q04DX003 (ip), vehicle: saline with Tween-80
[7] = endpoint: mean survival time, dose: 100.0 mg/kg/injection, schedule: Q01DX001 (ip), vehicle: saline with Tween-80
[8] = endpoint: mean survival time, dose: 200.0 mg/kg/injection, schedule: Q01DX001 (ip), vehicle: saline with Tween-80
[9] = endpoint: mean survival time, dose: 400.0 mg/kg/injection, schedule: Q01DX001 (ip), vehicle: saline with Tween-80
[10] = endpoint: mean survival time, dose: 1.25 mg/kg/injection, schedule: Q01DX009 (ip), vehicle: saline with Tween-80
[11] = endpoint: mean survival time, dose: 2.5 mg/kg/injection, schedule: Q01DX009 (ip), vehicle: saline with Tween-80
[12] = endpoint: mean survival time, dose: 5.0 mg/kg/injection, schedule: Q01DX009 (ip), vehicle: saline with Tween-80

Cc1ccc(S(=O)(=O)N/N=C/C(=O)O)cc1
T/C (endpoint: mean survival time, dose: 25.0 mg/kg/injection, schedule: Q01DX009 (ip), vehicle: other): 117 % of control and 108 % of control
T/C (endpoint: mean survival time, dose: 100.0 mg/kg/injection, schedule: Q01DX009 (ip), vehicle: other): 123 % of control
T/C (endpoint: mean survival time, dose: 100.0 mg/kg/injection, schedule: Q04DX003 (ip), vehicle: Klucel (hydroxypropylcellulose) (HPC)): 150 % of control
T/C [1]: 123 % of control
T/C (endpoint: mean survival time, dose: 200.0 mg/kg/injection, schedule: Q01DX009 (ip), vehicle: other): 96 % of control and 102 % of control
T/C (endpoint: mean survival time, dose: 400.0 mg/kg/injection, schedule: Q04DX003 (ip), vehicle: Klucel (hydroxypropylcellulose) (HPC)): 186 % of control
T/C (endpoint: mean survival time, dose: 600.0 mg/kg/injection, schedule: Q04DX003 (ip), vehicle: Klucel (hydroxypropylcellulose) (HPC)): 114 % of control
T/C (endpoint: mean survival time, dose: 600.0 mg/kg/injection, schedule: Q04DX003 (ip), vehicle: saline with Tween-80): 153 % of control
T/C (endpoint: median survival time, dose: 1.0 mg/kg/injection, schedule: Q03HX024 (ip), vehicle: saline): 111 % of control
T/C (endpoint: median survival time, dose: 2.0 mg/kg/injection, schedule: Q03HX016 (ip), vehicle: saline): 124 % of control
T/C (endpoint: median survival time, dose: 2.0 mg/kg/injection, schedule: Q03HX024 (ip), vehicle: saline): 112 % of control
T/C (endpoint: median survival time, dose: 4.0 mg/kg/injection, schedule: Q03HX008 (ip), vehicle: saline): 124 % of control
T/C (endpoint: median survival time, dose: 4.0 mg/kg/injection, schedule: Q03HX024 (ip), vehicle: saline): 121 % of control
T/C (endpoint: median survival time, dose: 8.0 mg/kg/injection, schedule: Q01DX009 (sc), vehicle: saline): 102 % of control
T/C (endpoint: median survival time, dose: 16.0 mg/kg/injection, schedule: Q01DX009 (oral), vehicle: saline): 101 % of control
T/C (endpoint: median survival time, dose: 16.0 mg/kg/injection, schedule: Q01DX009 (sc), vehicle: saline): 104 % of control
T/C (endpoint: median survival time, dose: 32.0 mg/kg/injection, schedule: Q01DX001 (sc), vehicle: saline): 104 % of control
T/C (endpoint: median survival time, dose: 32.0 mg/kg/injection, schedule: Q01DX009 (ip), vehicle: saline): 166 % of control
T/C (endpoint: median survival time, dose: 32.0 mg/kg/injection, schedule: Q01DX009 (oral), vehicle: saline): 98 % of control
T/C (endpoint: median survival time, dose: 32.0 mg/kg/injection, schedule: Q01DX009 (sc), vehicle: saline): 116 % of control
T/C (endpoint: median survival time, dose: 32.0 mg/kg/injection, schedule: Q03HX016 (ip), vehicle: saline): 123 % of control
T/C (endpoint: median survival time, dose: 32.0 mg/kg/injection, schedule: Q03HX024 (ip), vehicle: saline): 92 % of control
T/C (endpoint: median survival time, dose: 64.0 mg/kg/injection, schedule: Q01DX001 (sc), vehicle: saline): 105 % of control
T/C (endpoint: median survival time, dose: 64.0 mg/kg/injection, schedule: Q01DX009 (ip), vehicle: saline): 157 % of control
T/C (endpoint: median survival time, dose: 64.0 mg/kg/injection, schedule: Q01DX009 (oral), vehicle: saline): 102 % of control
T/C (endpoint: median survival time, dose: 64.0 mg/kg/injection, schedule: Q01DX009 (sc), vehicle: saline): 116 % of control
T/C (endpoint: median survival time, dose: 64.0 mg/kg/injection, schedule: Q04DX003 (ip), vehicle: saline): 164 % of control
T/C (endpoint: median survival time, dose: 128.0 mg/kg/injection, schedule: Q01DX001 (oral), vehicle: saline): 102 % of control
T/C (endpoint: median survival time, dose: 128.0 mg/kg/injection, schedule: Q01DX001 (sc), vehicle: saline): 104 % of control
T/C (endpoint: median survival time, dose: 128.0 mg/kg/injection, schedule: Q01DX009 (oral), vehicle: saline): 102 % of control
T/C (endpoint: median survival time, dose: 128.0 mg/kg/injection, schedule: Q01DX009 (sc), vehicle: saline): 116 % of control
T/C (endpoint: median survival time, dose: 128.0 mg/kg/injection, schedule: Q04DX003 (ip), vehicle: saline): 168 % of control
T/C (endpoint: median survival time, dose: 128.0 mg/kg/injection, schedule: Q08DX002 (ip), vehicle: saline): 155 % of control
T/C (endpoint: median survival time, dose: 256.0 mg/kg/injection, schedule: Q01DX001 (oral), vehicle: saline): 98 % of control
T/C (endpoint: median survival time, dose: 256.0 mg/kg/injection, schedule: Q01DX001 (sc), vehicle: saline): 107 % of control
T/C (endpoint: median survival time, dose: 256.0 mg/kg/injection, schedule: Q01DX009 (oral), vehicle: saline): 105 % of control
T/C (endpoint: median survival time, dose: 512.0 mg/kg/injection, schedule: Q01DX001 (oral), vehicle: saline): 110 % of control
T/C (endpoint: median survival time, dose: 512.0 mg/kg/injection, schedule: Q01DX001 (sc), vehicle: saline): 112 % of control
T/C (endpoint: median survival time, dose: 1024.0 mg/kg/injection, schedule: Q01DX001 (oral), vehicle: saline): 123 % of control

c1ccc(-c2cc(-c3ccccc3)n(-c3ccccc3)c2-c2ccccc2)cc1
T/C [2]: 88 % of control
T/C [3]: 94 % of control
T/C [4]: 88 % of control

NC(=O)N/N=C/c1ccccc1N
T/C [1]: 97 % of control
T/C [5]: 108 % of control
T/C [6]: 98 % of control

CCCCCCCC=C(CCCCCCCC)CCCCCCCC
T/C [7]: 100 % of control
T/C [8]: 97 % of control
T/C [9]: 100 % of control

O=C(C1CC1c1ccccc1)N1CCC(Nc2ccccc2)CC1 (configuration not stated)
T/C (endpoint: mean survival time, dose: 100.0 mg/kg/injection, schedule: Q04DX002 (ip), vehicle: other): 102 % of control
T/C (endpoint: mean survival time, dose: 200.0 mg/kg/injection, schedule: Q04DX002 (ip), vehicle: other): 94 % of control
T/C (endpoint: mean survival time, dose: 400.0 mg/kg/injection, schedule: Q04DX002 (ip), vehicle: other): 90 % of control

C=C[CH2][Sn]([CH2]C=C)([c]1ccccc1)[c]1ccccc1
T/C (endpoint: mean survival time, dose: 6.25 mg/kg/injection, schedule: Q01DX009 (ip), vehicle: saline with Tween-80): 89 % of control
T/C (endpoint: median survival time, dose: 25.0 mg/kg/injection, schedule: Q04DX002 (ip), vehicle: saline with Tween-80): 112 % of control

O=C(O)c1cccc(S(=O)(=O)N(CCO)CCO)c1
T/C [2]: 94 % of control
T/C [1]: 98 % of control
T/C [3]: 94 % of control
T/C [5]: 94 % of control
T/C [6]: 94 % of control

BrC1=C(Br)C(Br)(Br)C(Br)=C1Br
T/C [10]: 106 % of control
T/C [11]: 101 % of control
T/C [12]: 101 % of control

CCCCNC(=O)CCC(=O)O
T/C [2]: 109 % of control
T/C [1]: 99 % of control
T/C [3]: 94 % of control
T/C [5]: 99 % of control
T/C [4]: 96 % of control
T/C [6]: 95 % of control

Cc1cc(Br)cnc1Cl
T/C [7]: 97 % of control
T/C [1]: 92 % of control
T/C [8]: 106 % of control
T/C [5]: 97 % of control
T/C [9]: 101 % of control
T/C [6]: 96 % of control

CC(=O)O[C@H]1CC[C@@]2(C)C(=CC[C@H]3[C@@H]4CC[C@H](O)[C@@]4(C)CC[C@@H]32)C1
T/C (endpoint: mean survival time, dose: 100.0 mg/kg/injection, schedule: Q01DX009 (ip), vehicle: Klucel (hydroxypropylcellulose) (HPC)): 97 % of control
T/C (endpoint: mean survival time, dose: 200.0 mg/kg/injection, schedule: Q01DX009 (ip), vehicle: Klucel (hydroxypropylcellulose) (HPC)): 90 % of control
T/C (endpoint: mean survival time, dose: 400.0 mg/kg/injection, schedule: Q01DX009 (ip), vehicle: Klucel (hydroxypropylcellulose) (HPC)): 95 % of control

CC1=CC(O)(c2ccccc2)C(C)=CC1=O (configuration not stated)
T/C [7]: 97 % of control
T/C [8]: 97 % of control
T/C [9]: 93 % of control

c1ccc(-c2nn(-c3ccccc3)[n+](-c3ccccc3)n2)cc1
T/C [10]: 100 % of control
T/C [11]: 100 % of control
T/C [12]: 104 % of control
T/C (endpoint: mean survival time, dose: 5.0 mg/kg/injection, schedule: Q04DX003 (ip), vehicle: saline): 95 % of control

C=CCC1OC1CCCC1CO1 (configuration not stated)
T/C (endpoint: mean survival time, dose: 100.0 mg/kg/injection, schedule: Q01DX001 (ip), vehicle: saline sonified): 94 % of control
T/C (endpoint: mean survival time, dose: 100.0 mg/kg/injection, schedule: Q04DX002 (ip), vehicle: saline with Tween-80): 97 % of control
T/C (endpoint: mean survival time, dose: 200.0 mg/kg/injection, schedule: Q01DX001 (ip), vehicle: saline sonified): 90 % of control
T/C (endpoint: mean survival time, dose: 200.0 mg/kg/injection, schedule: Q04DX002 (ip), vehicle: saline with Tween-80): 101 % of control
T/C (endpoint: mean survival time, dose: 400.0 mg/kg/injection, schedule: Q01DX001 (ip), vehicle: saline sonified): 97 % of control
T/C (endpoint: mean survival time, dose: 400.0 mg/kg/injection, schedule: Q04DX002 (ip), vehicle: saline with Tween-80): 97 % of control

NCC(=O)NC(CSc1ccc([N+](=O)[O-])cc1[N+](=O)[O-])C(=O)NC(CCC(=O)O)C(=O)O (configuration not stated) (H-Gly-Cys(Dnp)-Glu-OH; configuration not given here)
T/C [1]: 103 % of control
T/C [5]: 101 % of control
T/C [6]: 98 % of control
